Test results taken from US20020177203A1, “Alpha2 subunit of prolyl 4-hydroxylase” (priority 1996, published 2002).

Assays:
[1] = biological target: T1, mouse/human type 2 prolyl 4-hydroxylase tetramer (α22β2) (Mus musculus, UniProt Q60716); assay: Prolyl 4-hydroxylase activity assay (decarboxylation of 2-oxo[1-14C]glutarate), type 2 enzyme; assay type: biochemical; conditions: for IC50: α22β2, footnote: values determined as IC50, read-out: Ki column, values determined as IC50
T1 construct: the cDNA clones, considered in combination, cover the whole coding region of the mouse α2 subunit; made in house; host or cells: Spodoptera frugiperda Sf9 insect cells (baculovirus pVL1392 construct, co-infection with PDI/β virus); 0.1% Triton X-100 extract
T1 sequence (Q60716 20-537 limits assumed): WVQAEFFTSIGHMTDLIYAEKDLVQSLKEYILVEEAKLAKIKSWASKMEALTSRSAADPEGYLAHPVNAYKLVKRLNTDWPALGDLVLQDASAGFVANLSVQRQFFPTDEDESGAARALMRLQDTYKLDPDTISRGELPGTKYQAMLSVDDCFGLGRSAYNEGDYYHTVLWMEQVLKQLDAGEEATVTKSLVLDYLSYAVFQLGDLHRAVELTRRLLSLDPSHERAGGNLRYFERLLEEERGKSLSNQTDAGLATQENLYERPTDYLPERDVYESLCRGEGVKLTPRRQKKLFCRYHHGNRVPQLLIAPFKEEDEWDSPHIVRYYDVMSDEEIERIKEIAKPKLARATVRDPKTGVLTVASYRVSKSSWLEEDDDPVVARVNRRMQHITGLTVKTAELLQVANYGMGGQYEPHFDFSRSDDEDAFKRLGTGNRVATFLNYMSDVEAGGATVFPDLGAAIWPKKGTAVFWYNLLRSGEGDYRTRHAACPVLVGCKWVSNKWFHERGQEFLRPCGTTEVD
T1 sequence (P07237 18-508 partner): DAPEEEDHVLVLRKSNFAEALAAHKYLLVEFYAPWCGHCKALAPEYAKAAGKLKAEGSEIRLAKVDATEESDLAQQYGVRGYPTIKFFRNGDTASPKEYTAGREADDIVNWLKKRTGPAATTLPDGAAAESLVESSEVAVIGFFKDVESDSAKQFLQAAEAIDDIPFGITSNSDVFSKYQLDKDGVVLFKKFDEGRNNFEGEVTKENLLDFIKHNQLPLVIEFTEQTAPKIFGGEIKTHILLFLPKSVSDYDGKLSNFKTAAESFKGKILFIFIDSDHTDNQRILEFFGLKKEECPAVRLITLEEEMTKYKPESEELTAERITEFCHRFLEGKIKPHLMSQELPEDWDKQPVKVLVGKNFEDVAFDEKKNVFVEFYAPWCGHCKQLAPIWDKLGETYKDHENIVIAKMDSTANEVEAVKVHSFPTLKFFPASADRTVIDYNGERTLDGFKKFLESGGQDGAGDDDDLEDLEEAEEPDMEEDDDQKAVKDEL
Protocol: (§1) A recombinant baculovirus coding for the mouse α2 subunit was generated and used to infect S. frugiperda insect cells with or without the human PDI/β subunit, wherein the insect cells were infected at a multiplicity of 5. For production of an enzyme tetramer, the human α59 1 (see, Vuori, et al., supra) or mouse α2 viruses and the PDI/β viruses (id.) were used in a 1:1 or 2:1 ratio. […] The resulting supematants were analyzed by SDS/8% PAGE or nondenaturing 7.5% PAGE and assayed for enzyme activities. The cell pellets were further solubilized in 1% SDS, and the 0.1% Triton X-100-soluble and 1% SDS-soluble proteins were analyzed by SDS/PAGE under reducing for the α1 subunit of prolyl 4-hydroxylase (Veijola et al., supra; Vuori et al., supra; John et al. […] The 0.1% Triton X-100 extracts from cell homogenates containing either the mouse-human type II or the human type I enzyme were analyzed for prolyl 4-hydroxylase activity with an assay based on the hydroxylation-coupled decarbosylation of 2-oxo[1^14C]glutarate (Kivirikko and Myllyla, supra).

[2] = biological target: T2, human type 1 prolyl 4-hydroxylase tetramer (α12β2) (Homo sapiens, UniProt P13674); assay: Prolyl 4-hydroxylase activity assay (decarboxylation of 2-oxo[1-14C]glutarate), type 1 enzyme; assay type: biochemical; conditions: α12β2, recombinant enzyme from insect cells, 0.1% Triton X-100 extract
T2 construct: made in house; host or cells: Spodoptera frugiperda Sf9 insect cells (baculovirus co-infection); 0.1% Triton X-100 extract
T2 sequence (P13674 18-534): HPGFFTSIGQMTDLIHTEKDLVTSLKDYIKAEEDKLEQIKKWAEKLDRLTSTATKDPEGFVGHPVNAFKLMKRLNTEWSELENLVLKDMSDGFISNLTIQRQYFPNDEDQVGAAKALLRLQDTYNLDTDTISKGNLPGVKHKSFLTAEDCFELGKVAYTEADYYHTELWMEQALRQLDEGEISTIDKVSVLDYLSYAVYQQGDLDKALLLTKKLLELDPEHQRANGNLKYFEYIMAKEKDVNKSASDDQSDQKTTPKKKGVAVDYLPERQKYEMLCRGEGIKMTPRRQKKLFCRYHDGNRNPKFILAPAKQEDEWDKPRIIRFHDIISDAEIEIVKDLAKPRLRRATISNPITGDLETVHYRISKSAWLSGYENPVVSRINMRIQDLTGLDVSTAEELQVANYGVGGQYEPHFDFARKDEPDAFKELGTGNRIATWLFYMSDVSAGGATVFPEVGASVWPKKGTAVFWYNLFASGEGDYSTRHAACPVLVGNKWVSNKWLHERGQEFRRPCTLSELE
T2 sequence (P07237 18-508 partner): as the sequence (P07237 18-508 partner) above
Protocol: as §1

[3] = α22β2 (mouse α2, human PDI/β), recombinant enzyme from insect cells

| Compound | Ki [2] | Km [2] | Km [1, 3] | further results |
| --- | --- | --- | --- | --- |
| poly (L-proline) | – | – | – | inhibition of the type 2 enzyme ([1]; type 2 enzyme compared with type 1): inhibited by poly (L-proline) only at very high concentrations |
| Poly(t-proline), Mt 7000 | 0.5 µM | – | – | IC50 [1]: 300 µM |
| (Pro-Pro-Gly)10 [(Pro--Pro--Gly)] | – | 18 µM | 45 µM | – |
| Poly(t-proline), Mt 44,000 | 0.02 µM | – | – | IC50 [1]: 30 µM |
| [Fe+2] [Fe^2+] | – | 4 µM | 4 µM | – |
| O=C(O)CCC(=O)C(=O)O [2-Oxoglutatrate, 2-oxoglutarate] | – | 22 µM | 12 µM | – |
| O=C(O)c1ccnc(C(=O)O)c1 [Pyridine-2,4-dicarboxylate] | 2 µM | – | – | Ki [1, 3]: 1 µM |
